Test results taken from PubChem BioAssay (NCI).
Where “and” joins values, the source holds several entries; their conditions need not be identical. Identical values can stand only once.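 96-well plates; 48 h exposure; 5 concentrations. Endpoints by linear interpolation between flanking doses. Not reached: highest tested concentration assigned. At the GI50, growth is halved. TGI is the concentration that stops growth completely.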

Experiments:
Test in all cases: NCI-60 cell line screen, 48 h
786-0 renal = tested on: 786-0 renal
A498 renal = tested on: A498 renal
CCRF-CEM leukemia = tested on: CCRF-CEM leukemia
DU-145 prostate = tested on: DU-145 prostate
EKVX NSCLC = tested on: EKVX NSCLC
HCC-2998 colon = tested on: HCC-2998 colon
HCT-116 colon = tested on: HCT-116 colon
HOP-62 NSCLC = tested on: HOP-62 NSCLC
HT29 colon = tested on: HT29 colon
K-562 leukemia = tested on: K-562 leukemia
KM12 colon = tested on: KM12 colon
MCF7 breast = tested on: MCF7 breast
NCI-H226 lung = tested on: NCI-H226 lung
OVCAR-4 ovarian = tested on: OVCAR-4 ovarian
OVCAR-8 ovarian = tested on: OVCAR-8 ovarian
SK-MEL-5 melanoma = tested on: SK-MEL-5 melanoma
U251 CNS = tested on: U251 CNS
UACC-257 melanoma = tested on: UACC-257 melanoma
UACC-62 melanoma = tested on: UACC-62 melanoma

| SMILES | TGI (786-0 renal) [µM] | TGI (A498 renal) [µM] | TGI (CCRF-CEM leukemia) [µM] | TGI (DU-145 prostate) [µM] | TGI (EKVX NSCLC) [µM] | TGI (HCC-2998 colon) [µM] | TGI (HCT-116 colon) [µM] | TGI (HOP-62 NSCLC) [µM] | TGI (HT29 colon) [µM] | TGI (K-562 leukemia) [µM] | TGI (KM12 colon) [µM] | TGI (MCF7 breast) [µM] | TGI (NCI-H226 lung) [µM] | TGI (OVCAR-4 ovarian) [µM] | TGI (OVCAR-8 ovarian) [µM] | TGI (SK-MEL-5 melanoma) [µM] | TGI (U251 CNS) [µM] | TGI (UACC-257 melanoma) [µM] | TGI (UACC-62 melanoma) [µM] | GI50 (MCF7 breast) |
| --- | --- | --- | --- | --- | --- | --- | --- | --- | --- | --- | --- | --- | --- | --- | --- | --- | --- | --- | --- | --- |
| O=c1[nH]nc(Cc2c[nH]c3ccccc23)o1 | > 100 | > 100 | > 100 | > 100 | > 100 | > 100 | > 100 | > 100 | > 100 | > 100 | > 100 | > 100 | > 100 | > 100 | > 100 | > 100 | > 100 | > 100 | > 100 | – |
| C/C=C(\C)C(O)C(C)C(O)C/C=C(C)/C=C(\C)C/C(C)=C/C/C=C(\C)C(O)C(C)c1ccc(CCC)c(=O)o1 (centres undefined) | 55.7 | 50.6 | > 100 | 91.7 | > 100 | 26.4 | 19.7 | 30.4 | 3.32 | > 100 | 23.8 | 22.9 | 55.6 | 65.4 | 48.7 | 14.3 | 24.1 | 15.2 | 26.1 | – |
| COc1cc(NCCC2CCCCN2)c2ncccc2c1 (centres undefined) | > 100 | > 89.6 | > 66.3 | > 100 | > 100 | 30.7 | > 67.6 | > 100 | > 100 | > 66.3 | > 100 | 1.96 | 97.9 | > 100 | > 100 | > 55.4 | > 100 | 41.1 | > 59.9 | – |
| O=C1C2=C(CC3=C(C2)CS(=O)(=O)C3)C(=O)C2=C1CC1=C(C2)CS(=O)(=O)C1 | 40.6 | > 90.9 | 34.3 | > 87 | > 62.7 | > 51.6 | 28.5 | 37.3 | 41.4 | > 39.1 | > 40.8 | 35.1 | > 59.7 | > 33.1 | > 59.7 | 37.3 | 31 | > 61.2 | 37.1 | – |
| COc1ccc(N2C(=O)C3c4[nH]c5ccc(Br)cc5c4C4CCC(C(C)(C)C)CC4C3C2=O)cc1 (centres undefined) | > 100 | > 100 | > 100 | > 100 | > 100 | > 100 | > 100 | > 100 | > 100 | > 100 | > 100 | > 100 | > 100 | > 100 | > 100 | > 100 | > 100 | > 100 | > 100 | – |
| CCOC(=O)C1=NN(c2ccc([N+](=O)[O-])cc2)[C@@]2(C)C[C@]3(c4ccccc4)N(c4ccc([N+](=O)[O-])cc4)N=C(C(=O)OCC)N3c3ccccc3N12 | > 100 | > 100 | > 100 | > 100 | > 100 | > 100 | > 100 | > 100 | > 100 | > 100 | > 100 | > 100 | > 100 | > 100 | > 100 | > 100 | > 100 | > 100 | > 100 | – |
| CN(/N=C/c1cccc2cccnc12)c1ccc(Cl)cc1[N+](=O)[O-] | > 100 | > 100 | > 100 | > 100 | > 100 | > 100 | > 100 | > 100 | > 100 | > 100 | > 100 | > 100 | > 100 | > 100 | > 100 | > 100 | > 100 | > 100 | > 100 | – |
| Cc1c2c(c(O)c3c(O)cccc13)C(=O)C1(O)C(O)=C(C(=O)NCNc3ccc(C(N)=O)cn3)C(=O)C(N(C)C)C1C2 (centres undefined) | > 100 | 9.33 | 8.31 | 20 | > 100 | 8.66 | > 100 | > 100 | > 100 | 6.26 | 15.6 | > 100 | > 100 | 5.85 | 35.5 | 11.2 | 18.5 | > 100 | 9.59 | – |
| CC1SCc2nc3ccccc3n21 (centres undefined) | > 100 | > 100 | > 100 | > 100 | > 100 | > 100 | > 100 | > 100 | > 100 | > 100 | > 100 | > 100 | > 100 | > 100 | > 100 | > 100 | > 100 | > 100 | > 100 | – |
| NC(Cc1ccc(N(CCCl)CCCl)cc1)C(=O)NC(CCC(=O)O)C(=O)O (centres undefined) | > 100 | > 100 | > 100 | > 100 | > 100 | > 100 | > 100 | > 100 | > 100 | > 100 | > 100 | > 100 | > 100 | > 100 | > 100 | > 100 | > 100 | > 100 | > 100 | – |
| CS(=O)(=O)c1ccc(N=C/C=C/Nc2ccc(S(C)(=O)=O)cc2)cc1 | > 100 | > 100 | > 100 | > 100 | > 100 | > 100 | > 100 | > 100 | > 100 | > 100 | > 100 | > 100 | > 100 | > 100 | > 100 | > 100 | > 100 | > 100 | > 100 | – |
| CN(C)C(c1ccccc1)C1COC2Cc3ccccc3C1O2 (centres undefined) | > 100 | > 100 | > 100 | > 100 | > 100 | > 100 | > 100 | > 100 | > 100 | > 100 | > 100 | > 100 | > 100 | > 100 | > 100 | > 100 | > 100 | > 100 | > 100 | 84 µM and 23.6 µM |
